Measured values published in patent US11980687B2, “Liposomal compounds and methods of use thereof” (University of Kentucky Research Foundation, priority 2019, dated 2024).

Legend:
macrophages [1] = test: Flow cytometry of macrophage phenotypes in the injured heart; type: in vivo, mice; conditions: heart post-MI, relative to Lazm
Procedure: Phenotypic cell analysis of macrophages and neutrophils and gene expression analysis was conducted in the heart as previously described ([…] et al. 2018). Briefly, mice were sacrificed, and hearts were rapidly isolated and placed in ice cold PBS (VWR International). Using a razor blade, the heart was minced manually. After mincing, tissue was incubated with a Collagenase B (Roche, Indianapolis, IN) and Dispase II (Roche, Indianapolis, IN) mixture at 37° C. for 30 minutes, with gentle agitation every 5-10 minutes. Tissue digestion ceased using cold staining buffer and the suspension was placed on ice and filtered using a 70 μm cell strainer, followed by centrifugation at 400×g for 5 mins at 4° C. Supernatant was discarded and the pellet was resuspended in 0.3 ml of staining buffer. Individual heart cells were divided into approximately three equal portions depending on cell counting with 10^6 live (trypan blue-negative) cells in each. Two portions were used for cell staining while the remainder was incubated with cell lysis buffer (Life technologies) using multiple aggressive agitations, for 10 minutes and reserved at -80° C. for further gene expression analysis. […] Cells were then washed twice with staining buffer and analyzed by an LSR II (Becton Dickinson) in the University of Kentucky Flow Cytometry Core. […]

cardiac cells = test: TUNEL and caspase-3 staining of apoptosis in the peri-infarct region; type: in vivo, mice; conditions: peri-infarct regions, 3 days post-MI, compared to vehicle control
Procedure: Cell apoptosis was examined on deparaffinized and rehydrated sections from mice (N=4/treatment group) sacrificed at day 3, as previously described ([…] et al. 2018). TUNEL and caspase-3 staining was performed in the Biospecimen Procurement and Translational Pathology Shared Resource Facility (BPTP SRF) at the University of Kentucky. Nucleated cells that stained positive were estimated. Quantification was performed using Cell Counter plugin for ImageJ (version 1.51d). Findings are presented as total positive cells per high power field in the peri-infract region. All measurements were obtained in the peri-infarcted areas only and analyzed by blinded observer.

Ly6C^hi monocytes = test: Flow cytometry of Ly6C^hi monocytes in heart and blood post-MI; type: in vivo, mice; conditions: first day after injury; effect disappears at later timepoints
Procedure: (§1) Cell phenotype, in addition to gene analyses, of monocytes and neutrophils were investigated in peripheral blood as previously described ([…] et al. 2018). Briefly, blood was collected in tubes with a 1:5 ratio of ethylene diaminetetraacetic acid (EDTA)/citrate-theophylline-adenosinedipyridamole (CTAD) on days 1, 3 and 7 post-MI. Whole blood was centrifuged for 5 minutes at 500×g, and the plasma layer was separated and reserved at -80° C. To lyse red blood cells, the residual cell pellet was incubated with 0.5 ml of diluted red blood lysing buffer (BD pharm lyse) for 10 minutes with mild agitation. To end the lysis process, 0.5 ml of staining buffer (5% goat serum, 0.05% sodium azide in phosphate-buffered saline) was added to the suspension of red blood cell lysed blood. Then, the suspension was centrifuged at 400×g for 5 minutes, and the supernatant was removed. This step was repeated if the red blood cells were still detectable in the cell pellet. White blood cell pellet was washed twice in staining buffer to remove any residual lysis buffer. After supernatant removal, the pellet was resuspended in a pre-determined volume of staining buffer and counted. […] Following incubation, cells were washed twice with staining buffer and analyzed by an LSR II (Becton Dickinson) in the University of Kentucky Flow Cytometry Core. […]

[2] = system: pro- and anti-inflammatory cytokine expression; test: RT-PCR of inflammatory and reparative gene expression in heart and blood cells post-MI; type: in vivo, mice
Procedure: PureLink RNA Mini Kit (ThermoFisher Scientific) was used to isolate total mRNA from heart and blood cells according to manufacturer protocol. Isolated RNA was quantified using NanoDrop 8000 spectrophotometer (Thermofisher). Next, cDNA was generated using SuperScript VILO cDNA synthesis kit (Invitrogen). Using a QuantaStudio 7 Flex real-time thermocycler (Applied Biosystems by life technology), Reverse Transcription-Polymerase Chain Reaction (RT-PCR) was performed to measure the mRNA expression of markers identifying: inducible nitric oxide synthase (iNOS), tumor necrosis factor alpha (TNF-α), monocyte chemotactic protein-1 (MCP-1), transforming growth factor beta (TGF-β), interleukin-1 beta (IL-1β), interleukin-6 (IL-6), interleukin-4 (IL-4), chitinase-like3 Chil3 (YM1), interleukin-10 (IL10), arginase-1 (ARG-1), and Peroxisome proliferator-activated receptor gamma (PPARg). We used the comparative Ct method for relative estimation of mRNA expression which was normalized to 18s (a housekeeping gene). […]

infarcted heart = test: Masson's trichrome scar size 30 days post-MI; type: in vivo, mice; conditions: compared to controls
Procedure: Histological analysis was performed on deparaffinized and rehydrated sections as previously described (Al-Darraji, Haydar et al. 2018). Briefly, 30 day post-MI mice (N=6-10/treatment group) were sacrificed under isoflurane anesthesia and hearts were isolated. Hearts were perfused with PBS (VWR International) then by 10% buffered formalin (VWR International) at 75 mmHg. Perfused hearts were placed in 10% neutral buffered formalin (VWR) overnight at room temperature, then sectioned into 2-mm cross-sections starting at the level of coronary ligation then imbedded in paraffin and sectioned into 4-μm sections. Sections were stained with Masson's trichrome to evaluate scar size as previously described (Al-Darraji, Haydar et al. 2018). Digital images of stained sections were acquired, and areas of interest were assessed using NIH ImageJ […] software. The LV area, LV cavity area, and infarct area were measured as previously described (Al-Darraji, Haydar et al. 2018). Scar size was presented as a percentage of the total LV […].

heart = test: Hemodynamic and ECG effects after retro-orbital administration; type: in vivo, mice; conditions: 40 mg/kg retro-orbital
Procedure: Mice were anaesthetized using 1%-3% isoflurane during Echocardiography to maintain heart rate of 450-500 BPM during imaging. A Vevo 3100 system coupled with a 15-7-MHz linear broadband transducer and a 12-5-MHz phased array transducer was used to perform Echocardiogram analyses. Heart function was examined at baseline (before cardiac surgery) then one-week and 4 weeks post-MI. During acquisition, a heating pad was used to preserve the body temperature at 37° C.; the temperature was continuously assessed by a rectal temperature probe. Using modified parasternal long-axis and short-axis, two-dimensional and Doppler echocardiography was used to assess the LV function and volume in M-mode. Tracings at the mid-papillary level to investigate the systolic and diastolic parameters and Teichholz formula were used to quantify LV function. Echocardiography imaging and analyses were carried out by a blinded investigator. Mice were anesthetized with 2% isoflurane, then placed on the ECG platform. Electrodes were inserted subcutaneously on the two front paws and the left rear paw followed by ECG recording for 2-3 minutes. Once the recording was completed, the data were analyzed using Chart software (PhysioTel).

macrophages [3] = test: Immunohistochemistry of macrophages in the peri-infarct zone; type: in vivo, mice
Procedure: Heart sections (N=4/treatment group) were prepared as described in the previous section. Immunostaining of heart sections was performed on deparaffinized and rehydrated sections as previously described (Al-Darraji, Haydar et al. 2018). Briefly, after deparaffinization and rehydration, sections were incubated with primary antibodies: rabbit anti-mouse IBA1 (Wako), goat anti-mouse CD206 (R and D Systems), and goat anti-mouse IL-1β (R & D Systems) overnight at 4° C., then washed and incubated with secondary antibodies conjugated to Alexa Fluor 488 or 594 (Invitrogen), followed by incubation with DAPI. In the peri-infarct area, 10-15 adjacent zones per section (1-2 sections/animal) were imaged at 40× magnification utilizing Nikon Confocal Microscope A1 in the University of Kentucky Confocal Microscopy facility. Nucleated cells that were antibody-positive were quantified using Cell Counter plugin for Nikon NIS-Elements (version AR 3.2). Findings are presented as total number of positive cells per high power field in the area of interest.

neutrophils = test: Flow cytometry of neutrophils and N1 neutrophils in heart and blood post-MI; type: in vivo, mice; conditions: day 1 post-MI
Procedure: as §1

[4] = cited from earlier work
IL-1β = IL-1β (Homo sapiens, UniProt P01584); conditions: cited from earlier work

Compound	immunomodulatory changes of heart macrophages (FACS) (macrophages [1])	TUNEL positive cells (late apoptosis) (cardiac cells)	caspase-3 positive cells (early apoptosis) (cardiac cells)	Ly6C^hi (pro-inflammatory) monocytes in the heart (Ly6C^hi monocytes)	expression of anti-inflammatory cytokines and reparative macrophage markers (TGF-β, IL-10, IL-4, ARG, Fizz1, PPARγ, YM1) in cardiac tissue ([2]; consistent effects up to day 7)	mRNA levels of iNOS and pro-inflammatory cytokines (MCP-1, TNF-α, IL-6, IL-1β) in cardiac tissue ([2]; particularly days 1 and 3 post-infarct)	scar size (percentage of LV area) (infarcted heart)	QT interval (heart)	RR (heart; compared with baseline)	cardiac output (heart; compared with baseline)	ejection fraction (heart; compared with baseline)	heart rate (heart; compared with baseline)	reparative macrophages (CD206+) in peri-infarct zone (macrophages [3]; day 3 post-MI, compared to control groups)	expression of IL-1β in macrophages (IBA1+IL-1β+) (macrophages [3]; peri-infarct zones, 3 days post-MI, compared to controls)	mortality during drug administration (40 mg/kg IV, post-MI)	survival (35 days post-MI, vs vehicle-treated mice)	neutrophil counts in the heart (neutrophils)	post-MI cardiac recovery ([4]; 160 mg/kg/day, orally, initiated 3 days pre-MI)	neutrophil counts ([4]; first study, mice receiving AZM)	cardiovascular events reoccurrence (IL-1β)
CC[C@H]1OC(=O)[C@H](C)[C@@H](O[C@H]2C[C@@](C)(OC)[C@@H](O)[C@H](C)O2)[C@H](C)[C@@H](O[C@@H]2O[C@H](C)C[C@H](N(C)C)[C@H]2O)[C@](C)(O)C[C@@H](C)CN(C)[C@H](C)[C@@H](O)[C@]1(C)O [free AZM, azithromycin]	Less powerful immunomodulatory changes	remarkable reduction	remarkable reduction	significantly decrease in the first day after injury	significantly upregulated	substantially downregulated	significant reduction	prolonged	remarkably reduces	remarkably reduces	remarkably reduces	remarkably reduces	significant increase	marked reduction	occurs during the drug administration due to severe changes in cardiac conduction and hemodynamic parameters	marked improvement in survival	did not see significant changes	enhances post-MI cardiac recovery	substantially decreased	–
canakinumab: monoclonal antibody targeting IL-1β	–	–	–	–	–	–	–	–	–	–	–	–	–	–	–	–	–	–	–	significantly decreases cardiovascular events reoccurrence
